Data: patent US8703796B2, “3H-imidazo [4, 5-B] pyridine-6-carboxamides as anti-inflammatory agents” (Boehringer Ingelheim International GmbH, priority 2008, dated 2014)

Biological target: T1, recombinant human mPGES-1 (Homo sapiens, UniProt O14684)
T1 construct: made in house; host or cells: Rosetta E. coli (microsomal/membrane fraction)
T1 sequence (O14684 1-152): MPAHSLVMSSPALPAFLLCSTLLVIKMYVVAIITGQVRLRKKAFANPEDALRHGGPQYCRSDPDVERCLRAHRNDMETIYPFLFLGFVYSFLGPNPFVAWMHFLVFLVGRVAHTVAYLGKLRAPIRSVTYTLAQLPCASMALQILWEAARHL
Assay: mPGES-1 inhibition, HTRF detection of PGE2
Type: biochemical
How it was run: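 E. coli microsomal enzyme, 0.1 M KPi pH 7.4 + 2.5 mM GSH; cpd (DMSO) 25 min RT; PGH2 1 min; acidic FeCl2 stop. Dilute 750-fold, HTRF (d2/Eu-cryptate anti-PGE2, overnight 4 °C), 665/620 ratio vs PGE2 standard curve.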

inhibition at 10 µM | inhibition at 1 µM | Structure (SMILES)
99% | – | Cn1c(Nc2c(Cl)cccc2Cl)nc2cc(C(=O)N[C@H]3CC[C@H](C(F)(F)F)CC3)cnc21 [Example 174, 2-(2,6-Dichloro-phenylamino)-3-methyl-3H-imidazo[4,5-b]pyridine-6-carboxylic acid (trans-4-trifluoromethyl-cyclohexyl)-amide]
– | 96% | Cn1c(Nc2c(Cl)cnc(Cl)c2Cl)nc2cc(C(=O)N[C@H]3CC[C@H](C(F)(F)F)CC3)c(OCC(F)F)nc21 [Example 779, 2-(2,3,5-Trichloro-pyridin-4-yl-amino)-5-(2,2-difluoro-ethoxy)-N-(trans-4-trifluoromethyl-cyclohexyl)-3-methyl-3H-imidazo[4,5-b]pyridine-6-carboxamide]
100% | – | COc1nc2c(cc1C(=O)Nc1ccc(Br)cc1)nc(Nc1c(Cl)cccc1Cl)n2C [Example 377, N-(4-Bromophenyl)-2-(2,6-dichlorophenylamino)-5-methoxy-3-methyl-3H-imidazo[4,5-b]pyridine-6-carboxamide]
99% | – | O=C(Nc1ccc(Br)cc1)c1cc2nc(Nc3c(Cl)cc(F)cc3Cl)[nH]c2nc1OCC(F)(F)F [Example 820, 2-(2,6-Dichloro-4-fluoro-phenylamino)-5-(2,2,2-trifluoro-ethoxy)-N-(4-bromo-phenyl)-3H-imidazo[4,5-b]pyridine-6-carboxamide]
– | 98% | Cn1c(Nc2c(Cl)cccc2C(F)(F)F)nc2cc(C(=O)N[C@H]3CC[C@H](C(F)(F)F)CC3)c(OCC(F)F)nc21 [Example 777, 2-(2-Chloro-6-trifluoromethyl-phenylamino)-5-(2,2-difluoro-ethoxy)-N-(trans-4-trifluoromethyl-cyclohexyl)-3-methyl-3H-imidazo[4,5-b]pyridine-6-carboxamide]
100% | – | Cn1c(Nc2c(Cl)cc(F)cc2Cl)nc2cc(C(=O)N[C@H]3CC[C@H](C(F)(F)F)CC3)c(OCCF)nc21 [Example 870, 2-(2,6-Dichloro-4-fluoro-phenylamino)-5-(2-fluoro-ethoxy)-N-(trans-4-trifluoromethyl-cyclohexyl)-3-methyl-3H-imidazo[4,5-b]pyridine-6-carboxamide]
93% | – | CCOc1nc2[nH]c(Nc3c(Cl)cncc3Cl)nc2cc1C(=O)Nc1ccc(Br)cc1 [Example 856, 2-(3,5-Dichloro-pyridin-4-ylamino)-5-ethoxy-N-(4-bromo-phenyl)-3H-imidazo[4,5-b]pyridine-6-carboxamide]
100% | – | CCCC[C@@H](C)NC(=O)c1cnc2[nH]c(Nc3c(Cl)cccc3Cl)nc2c1 [Example 517, (R)-2-(2,6-Dichlorophenylamino)-N-(hex-2-yl)-3H-imidazo[4,5-b]pyridine-6-carboxamide]
100% | – | O=C(Nc1ccc(Br)cc1)c1cc2nc(Nc3c(Cl)cncc3Cl)[nH]c2nc1OCC(F)(F)F [Example 858, 2-(3,5-Dichloro-pyridin-4-ylamino)-5-(2,2,2-trifluoro-ethoxy)-N-(4-bromo-phenyl)-3H-imidazo[4,5-b]pyridine-6-carboxamide]
100% | – | Cn1c(Nc2c(Cl)cncc2Cl)nc2cc(C(=O)N[C@H]3CC[C@H](C(F)(F)F)CC3)c(OC3CCOC3)nc21 (stereo partly drawn) [Example 846, 2-(3,5-Dichloro-pyridin-4-ylamino)-5-(tetrahydrofuran-3-yl-oxy)-N-(trans-4-trifluoromethyl-cyclohexyl)-3-methyl-3H-imidazo[4,5-b]pyridine-6-carboxamide]
– | 100% | O=C(Nc1ccc(Br)cc1)c1cc2nc(Nc3c(F)cccc3C(F)(F)F)[nH]c2nc1OCC(F)F [Example 774, N-(4-Bromo-phenyl)-2-(2-fluoro-6-trifluoromethyl-phenylamino)-5-(2,2-difluoroethoxy)-3H-imidazo[4,5-b]pyridine-6-carboxamide]
99% | – | Cn1c(Nc2c(Cl)cccc2Cl)nc2cc(C(=O)NC3CCC(C(C)(C)C)CC3)cnc21 (stereo not shown) [Example 393, N-(4-tert-Butylcyclohexyl)-2-(2,6-dichlorophenylamino)-3-methyl-3H-imidazo[4,5-b]pyridine-6-carboxamide]
100% | – | CCCCCC[C@@H](C)NC(=O)c1cnc2c(c1)nc(Nc1c(Cl)cccc1Cl)n2C [Example 411, (R)-2-(2,6-Dichlorophenylamino)-3-methyl-N-(oct-2-yl)-3H-imidazo[4,5-b]pyridine-6-carboxamide]
87% | – | O=C(N[C@H]1CC[C@H](C(F)(F)F)CC1)c1cc2nc(Nc3cccnc3C(F)(F)F)[nH]c2nc1OCC(F)F [Example 798, 2-(2-Trifluoromethyl-pyridin-3-ylamino)-5-(2,2-difluoro-ethoxy)-N-(trans-4-trifluoromethyl-cyclohexyl)-3H-imidazo[4,5-b]pyridine-6-carboxamide]
96% | – | O=C(N[C@H]1CC[C@H](C(F)(F)F)CC1)c1cc2nc(Nc3c(Cl)ccc(Cl)c3F)[nH]c2nc1OCC(F)F [Example 796, 2-(3,6-Dichloro-2-fluoro-phenylamino)-5-(2,2-difluoro-ethoxy)-N-(trans-4-trifluoromethyl-cyclohexyl)-3H-imidazo[4,5-b]pyridine-6-carboxamide]
98% | – | Cn1c(Nc2c(Cl)cncc2Cl)nc2cc(C(=O)NCc3ncccc3C(F)(F)F)c(OCC(F)(F)F)nc21 [Example 851, 2-(3,5-Dichloro-pyridin-4-ylamino)-5-(2,2,2-trifluoro-ethoxy)-N-((3-trifluoromethyl-pyridin-2-yl)-methyl)-3-methyl-3H-imidazo[4,5-b]pyridine-6-carboxamide]

The remaining lines, values behind:

Structure (SMILES) | inhibition at 10 µM | inhibition at 1 µM
Cn1c(Nc2ccccc2C(F)(F)F)nc2cc(C(=O)N[C@H]3CC[C@H](C(F)(F)F)CC3)c(OCC(F)F)nc21 [Example 782, 2-(2-Trifluoromethyl-phenylamino)-5-(2,2-difluoro-ethoxy)-N-(trans-4-trifluoromethyl-cyclohexyl)-3-methyl-3H-imidazo[4,5-b]pyridine-6-carboxamide] | 100% | –
Cn1c(Nc2c(F)cccc2Cl)nc2cc(C(=O)Nc3ccc(Br)cc3)cnc21 [Example 480, N-(4-Bromophenyl)-2-(2-chloro-6-fluorophenylamino)-3-methyl-3H-imidazo[4,5-b]pyridine-6-carboxamide] | 100% | –
Cn1c(Nc2c(Cl)ccc(Cl)c2F)nc2cc(C(=O)N[C@H]3CC[C@H](C(F)(F)F)CC3)c(OCC(F)F)nc21 [Example 787, 2-(3,6-Dichloro-2-fluoro-phenylamino)-5-(2,2-difluoro-ethoxy)-N-(trans-4-trifluoromethyl-cyclohexyl)-3-methyl-3H-imidazo[4,5-b]pyridine-6-carboxamide] | 98% | –
CC(C)n1c(Nc2c(Cl)cccc2Cl)nc2cc(C(=O)NC3CCC(C)(C)CC3)cnc21 [Example 505, 2-(2,6-Dichlorophenylamino)-N-(4,4-dimethylcyclohexyl)-3-isopropyl-3H-imidazo[4,5-b]pyridine-6-carboxamide] | 100% | –
Cn1c(Nc2c(Cl)cncc2Cl)nc2cc(C(=O)NCC(F)(F)C(F)(F)C(F)(F)C(F)(F)F)c(OCC(F)F)nc21 [Example 840, 2-(3,5-Dichloro-pyridin-4-ylamino)-5-(2,2-difluoro-ethoxy)-N-(2,2,3,3,4,4,5,5,5-nonafluoropentyl)-3-methyl-3H-imidazo[4,5-b]pyridine-6-carboxamide] | 99% | –
CC1(C)CCC(NC(=O)c2cnc3c(c2)nc(Nc2c(Cl)cccc2Cl)n3Cc2ccccc2)CC1 [Example 413, 3-Benzyl-2-(2,6-dichlorophenylamino)-N-(4,4-dimethylcyclohexyl)-3H-imidazo[4,5-b]pyridine-6-carboxamide] | 100% | –
CCC1CCC(NC(=O)c2cnc3c(c2)nc(Nc2c(Cl)cccc2Cl)n3C)CC1 (stereo not shown) [Example 438, 2-(2,6-Dichlorophenylamino)-N-(4-ethylcyclohexyl)-3-methyl-3H-imidazo[4,5-b]pyridine-6-carboxamide] | 100% | –
O=C(NCC(F)(F)C(F)(F)C(F)(F)C(F)(F)F)c1cc2nc(Nc3c(Cl)cncc3Cl)[nH]c2nc1OC1CCOC1 (stereo not shown) [Example 792, 2-(3,5-Dichloro-pyridin-4-ylamino)-5-(tetrahydrofuran-3-yl-oxy)-N-(2,2,3,3,4,4,5,5,5-nonafluoro-pentyl)-3H-imidazo[4,5-b]pyridine-6-carboxamide] | 96% | –
CCCCCCCCNC(=O)c1cnc2c(c1)nc(Nc1c(Cl)cccc1Cl)n2C [Example 403, 2-(2,6-Dichlorophenylamino)-3-methyl-N-octyl-3H-imidazo[4,5-b]pyridine-6-carboxamide] | 100% | –
O=C(NCC(F)(F)C(F)(F)C(F)(F)C(F)(F)F)c1cc2nc(Nc3c(Cl)cncc3Cl)[nH]c2nc1OCC(F)(F)F [Example 854, 2-(3,5-Dichloro-pyridin-4-ylamino)-5-(2,2,2-trifluoro-ethoxy)-N-(2,2,3,3,4,4,5,5,5-nonafluoro-pentyl)-3H-imidazo[4,5-b]pyridine-6-carboxamide] | 96% | –
Cc1ccnc(C)c1Nc1nc2cc(C(=O)N[C@H]3CC[C@H](C(F)(F)F)CC3)c(OCC(F)F)nc2[nH]1 [Example 794, 2-(2,4-Dimethyl-pyridin-3-ylamino)-5-(2,2-difluoro-ethoxy)-N-(trans-4-trifluoromethyl-cyclohexyl)-3H-imidazo[4,5-b]pyridine-6-carboxamide] | 100% | –
COc1nc2c(cc1C(=O)NCc1ccccc1C(F)(F)F)nc(Nc1c(Cl)cccc1Cl)n2C [Example 861, 2-(2,6-Dichloro-phenylamino)-5-methoxy-N-(2-trifluoromethyl-benzyl)-3-methyl-3H-imidazo[4,5-b]pyridine-6-carboxamide] | 100% | –
